Data taken from patent publication US9110059B2, “Bio-pin” (Industry-Academic Cooperation Foundation, Yonsei University, priority 2011, dated 2015).

Assays:
Type in all cases: cell-based
[1] = test system: vascular cell adhesion molecule-1 (VCAM-1); test: Immunoblotting of HUVEC lysate with anti-VCAM-1 antibody; conditions: TNF-alpha 10 ng/mL for 24 hours
Description: (§1) HUVECs (5×10^4 cells/well) were cultured in an EGM medium (Lonza, USA) on a 24-well plate, starved for 4 hours in a 0.5% EBM medium, and treated with TNF-alpha (10 ng/mL) for 24 hours. Thereafter, the HUVECs were treated with a CellMask™ plasma membrane stain (Invitrogen, USA) at a final concentration of 5 μg/mL, reacted at 37° C. for 30 minutes in a CO2 incubator, and then washed three times with PBS.
(§2) Also, to determine whether the HUVECs were suitably stimulated with TNF-alpha, immunoblotting was performed using anti-ICAM-1 and anti-VCAM-1 antibodies.

[2] = test system: intercellular cell adhesion molecule-1 (ICAM-1); test: Immunoblotting of HUVEC lysate with anti-ICAM-1 antibody; conditions: TNF-alpha 10 ng/mL for 24 hours
Description: as §1, §2

[3] = test system: rat mesenchymal stem cells attached to H9c2 cells; test: Adhesion of bio-pin-treated mesenchymal stem cells to H9c2 cells (intercellular bond number); conditions: stem cells treated with 1 μM bio-pin for an hour, kept 10 minutes on H9c2 cells; fluorescence microscope and spectrometer
Description: Rat cardiac myoblast H9c2 cells were incubated until a 4-well chamber (Lab-Tek chamber slide) was 100% filled with the H9c2 cells. Thereafter, the H9c2 cells were treated with a cell-labeled dye (Vybrant™ DiI) at a final concentration of 5 μl/mL, reacted at 37° C. for 30 minutes in a CO2 incubator, and then washed three times with PBS.
Also, rat mesenchymal stem cells were cultured in a MesenPRO (Gibco, USA) medium in a petri dish. Thereafter, trypsin-EDTA and a trypsin-neutralizing solution were added at a ratio of 1:1, and then reacted for 5 minutes to detach the stem cells. The stem cells were treated with a cell-modifying dye (Vybrant™ DiO, Invitrogen, USA) at a final concentration of 5 μl/mL, reacted at 37° C. for 30 minutes in a CO2 incubator, washed three times with PBS, and then centrifuged for 3 minutes at a rotary speed of 1,200 rpm to be prepared.
The prepared stem cells were treated with the peptide-based complex previously prepared in Example 1 or 2 at a final concentration of 1 μM, reacted at 37° C. for an hour in a CO2 incubator while stirring right and left, washed three times with PBS, and then centrifuged to obtain a cell pellet. […] To quantify the MSCs attached to the H9c2 cells, a cell medium was removed off, and 200 μl of 0.1% Triton X-100 was added, and removed off after 5 minutes.

[4] = test system: rat mesenchymal stem cells (MSCs) attached to H9c2 cells; test: Adhesion of BPin-RGD-treated mesenchymal stem cells to H9c2 cells (intercellular bond number); conditions: stem cells treated with 100 nM bio-pin for an hour, kept 10 minutes on H9c2 cells; fluorescence 484 nm/501 nm
Description: Rat cardiac myoblast H9c2 cells were incubated until a 4-well chamber (Lab-Tek chamber slide) was 100% filled with the H9c2 cells. Thereafter, the H9c2 cells were treated with a CellMask™ plasma membrane stain (Invitrogen, USA) at a final concentration of 5 μl/mL, reacted at 37° C. for 30 minutes in a CO2 incubator, and then washed three times with PBS.
Also, rat mesenchymal stem cells (MSCs) were cultured in a MesenPRO (Gibco, USA) medium in a petri dish. Thereafter, trypsin-EDTA and a trypsin-neutralizing solution were added at a ratio of 1:1, and then reacted for 5 minutes to detach the stem cells. The stem cells were treated with a cell-modifying dye (Vybrant™ DiO, Invitrogen, USA) at a final concentration of 2 μl/mL, reacted at 37° C. for 30 minutes in a CO2 incubator, washed three times with PBS, and then centrifuged for 3 minutes at a rotary speed of 1,200 rpm.
The prepared stem cells were treated with the bio-pin prepared in Example 3 at a final concentration of 100 nM, reacted at 37° C. for an hour in a CO2 incubator while stirring right and left, washed three times with PBS, and then centrifuged to obtain a cell pellet. Subsequently, the cell pellet was re-suspended in 400 μl of a DMEM medium supplemented with 10% FBS. […] To quantify the MSCs attached to the H9c2 cells, 200 μl of 0.1% Triton X-100 was added, and removed off after 5 minutes.

Substance: TNF-alpha
- VCAM-1 expression in HUVECs (FIG. 9) [1]: increasingly expressed
- ICAM-1 expression in HUVECs (FIG. 9) [2]: increasingly expressed

Substance: BPin-55: bio-pin in which TAT cell-penetrating peptides are fused with N- and C-terminus of 31-amino-acid OPRD first transmembrane domain peptide (YGRKKRRQRRRGSLAIAITALYSAVCAVGLLGNVLVMFGIVRYTYGRKKRRQRRR; BPin-55 TAT-OPRD-TAT)
- number of intercellular bonds (FIGS. 5 and 6) [3]: remarkably increased

Substance: BPin-RGD: bio-pin with adhesive peptide (GRGDSP) at N-terminus and TAT cell-penetrating peptide at C-terminus of the 31-amino-acid OPRD peptide (GRGDSPGSLAIAITALYSAVCAVGLLGNVLVMFGIVRYTYGRKKRRQRRR; BPin-RGD RGD-OPRD-TAT)
- number of intercellular bonds (FIG. 7) [4]: remarkably increased
